Assay results: ChEMBL document CHEMBL1201862, “PubChem BioAssay data set” (2004)
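Compound exposure: 48 hours, 5 concentrations, 96-well plates. GI50: concentration for 50% inhibition of growth.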 Activity calls are given as the source filed them. Rule as the data show it: active = GI50 up to about 1.1 µM and inactive = higher.

Columns and labels:
Assay in all cases: NCI anticancer screen, dose series, 48 h
DU-145 = tested on: DU-145
SF-268 = tested on: SF-268
Hs-578T = tested on: Hs-578T
SW-620 = tested on: SW-620
ACHN = tested on: ACHN
HT-29 = tested on: HT-29
OVCAR-5 = tested on: OVCAR-5
SF-539 = tested on: SF-539
PC-3 = tested on: PC-3
CCRF-CEM = tested on: CCRF-CEM
RXF 393 = tested on: RXF 393
MCF7 = tested on: MCF7
MDA-N = tested on: MDA-N
M14 = tested on: M14
TK-10 = tested on: TK-10
NCI-H23 = tested on: NCI-H23
RPMI-8226 = tested on: RPMI-8226
HCT-116 = tested on: HCT-116
U-251 = tested on: U-251
NCI-H226 = tested on: NCI-H226

Measured: GI50

CC1=NN(C(=O)CC(=O)Nc2cccc(C)c2)C(=O)C1/N=N/c1ccc(C(=O)O)cc1 (configuration not stated)
inactive: DU-145 > 100 µM | SF-268 > 100 µM | Hs-578T > 100 µM | SW-620 > 100 µM | ACHN > 100 µM | HT-29 > 100 µM | OVCAR-5 > 100 µM | SF-539 > 100 µM | PC-3 > 100 µM | CCRF-CEM > 100 µM | RXF 393 > 100 µM | MCF7 > 100 µM | MDA-N > 100 µM | M14 > 100 µM | TK-10 > 100 µM | NCI-H23 > 100 µM | RPMI-8226 > 100 µM | HCT-116 > 100 µM | U-251 > 100 µM

O=C1/C(=C/c2ccccc2S)N=C(c2ccccc2)N1c1nc2c(Cl)cc(Cl)cc2s1
inactive: DU-145 32.5 µM | SF-268 36.3 µM | Hs-578T 23.7 µM | SW-620 27.7 µM | ACHN 22.6 µM | HT-29 18.4 µM | OVCAR-5 18.7 µM | SF-539 17 µM | PC-3 23.9 µM | CCRF-CEM 2.27 µM | RXF 393 23.7 µM | MCF7 22.3 µM | MDA-N 18.1 µM | M14 25.9 µM | TK-10 37.1 µM | RPMI-8226 21.8 µM | HCT-116 17.7 µM | U-251 23.4 µM

FC(F)(F)C1(C(F)(F)F)OC(Cl)(Cl)C(Cl)(Cl)O1
inactive: DU-145 > 10 µM | SF-268 > 10 µM | Hs-578T > 10 µM | SW-620 > 10 µM | ACHN > 10 µM | HT-29 > 10 µM | OVCAR-5 > 10 µM | SF-539 > 10 µM | NCI-H226 > 10 µM | PC-3 > 10 µM | RXF 393 > 10 µM | MCF7 > 10 µM | MDA-N > 10 µM | M14 > 10 µM | TK-10 > 10 µM | NCI-H23 > 10 µM | HCT-116 > 10 µM | U-251 > 10 µM

CCOC(=O)C1CSCCSC1
inactive: DU-145 > 100 µM | SF-268 > 100 µM | Hs-578T > 100 µM | SW-620 > 100 µM | ACHN > 100 µM | HT-29 > 100 µM | NCI-H226 > 100 µM | PC-3 > 100 µM | CCRF-CEM > 100 µM | RXF 393 > 100 µM | MCF7 > 100 µM | MDA-N > 100 µM | TK-10 > 100 µM | NCI-H23 > 100 µM | HCT-116 > 100 µM | U-251 > 100 µM

CSc1ccc(/C=C2\N=C(c3ccccc3)N(/N=C3\C(=O)Nc4ccccc43)C2=O)cc1
inactive: DU-145 > 100 µM | SF-268 > 100 µM | Hs-578T > 100 µM | SW-620 > 100 µM | ACHN > 100 µM | HT-29 > 100 µM | OVCAR-5 > 100 µM | SF-539 > 100 µM | PC-3 > 100 µM | CCRF-CEM 92.5 µM | RXF 393 > 100 µM | MCF7 > 100 µM | MDA-N > 100 µM | M14 > 100 µM | TK-10 > 100 µM | NCI-H23 > 100 µM | HCT-116 > 100 µM | U-251 > 100 µM

C=C1CCC([N+](=O)[O-])[C@](C)(N=O)CC[C@@H]2C1CC2(C)C (some centres not stated)
inactive: DU-145 > 100 µM | SF-268 31.3 µM | Hs-578T 17.6 µM | SW-620 16.9 µM | ACHN 37 µM | HT-29 19.9 µM | OVCAR-5 16.1 µM | NCI-H226 16 µM | PC-3 26.4 µM | CCRF-CEM 6.62 µM | MCF7 16.6 µM | MDA-N 11.6 µM | M14 27.4 µM | TK-10 28.6 µM | NCI-H23 17.2 µM | RPMI-8226 26 µM | HCT-116 14.8 µM | U-251 21.4 µM
